Data taken from the supplement of paper PMC10331698.
± gives the standard deviation of the averaged measurements.

Experiments:
Experiment in all cases: level (log10 ratio to DMSO vehicle control); higher = higher biomarker level / cell amount than vehicle control
Conditions in all cases: in DMSO
Heptafluorobutyl iodide = compound: FC(F)(F)C(F)(F)C(F)(F)CI [Heptafluorobutyl iodide]
Method: (§1)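 BioMAP Diversity Plus panel of 12 human primary cell co-culture systems (3C, 4H, LPS, SAg, BT, BF4T, BE3C, CASM3C, HDF3CGF, KF3CT, MyoF, Mphg). Compounds were added 1 h before stimulation and left for 24 h (MyoF 48 h; BT 72 h for soluble read-outs or 6 d for IgG). Biomarkers were read by ELISA, cytotoxicity by SRB, PBMC viability and proliferation by Alamar Blue. Each well value was divided by the mean of 8 DMSO control wells on the same plate and log10 transformed; duplicate blinded samples were tested at 4 concentrations.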

[1] = compound: FC(F)(F)C(F)(F)C(F)(F)CC1CO1 [1H,1H-Heptafluorobutyl epoxide]
Method: as §1

[2] = compound: O=C(O)C(F)(F)C(F)(F)C(F)(F)C(F)(F)C(F)(F)C(F)(F)C(F)(F)C(F)(F)C(F)(F)C(F)F [11-H-Perfluoroundecanoic acid]
Method: as §1

[3] = compound: NC(=O)C(F)(F)C(F)(F)C(F)(F)C(F)F
Method: as §1

[4] = compound: O=S(=O)(Cl)C(F)(F)C(F)(F)C(F)(F)C(F)(F)C(F)(F)C(F)(F)C(F)(F)C(F)(F)F [Perfluoro-1-octanesulfonyl chloride]
Method: as §1

[5] = compound: O=S(=O)(F)C(F)(F)C(F)(F)C(F)(F)C(F)(F)C(F)(F)C(F)(F)C(F)(F)C(F)(F)F [Perfluorooctanesulfonyl fluoride]
Method: as §1

[6] = compound: FC(F)(F)C(F)(F)CNCC(F)(F)C(F)(F)F [Bis(1H,1H-perfluoropropyl)amine]
Method: as §1

| Test System | level (log10) (Heptafluorobutyl iodide; 6700 nM) | level (log10) (Heptafluorobutyl iodide; 20000 nM) | level (log10) (Heptafluorobutyl iodide; 60000 nM) | level (log10) ([1]; 6700 nM) | level (log10) ([1]; 20000 nM) | level (log10) ([1]; 60000 nM) | level (log10) ([2]; 6700 nM) | level (log10) ([2]; 20000 nM) | level (log10) ([3]; 6700 nM) | level (log10) ([3]; 20000 nM) | level (log10) ([3]; 60000 nM) | level (log10) ([4]; 6700 nM) | level (log10) ([4]; 20000 nM) | level (log10) ([4]; 60000 nM) | level (log10) ([5]; 6700 nM) | level (log10) ([5]; 20000 nM) | level (log10) ([5]; 60000 nM) | level (log10) ([6]; 6700 nM) | level (log10) ([6]; 20000 nM) | level (log10) ([6]; 60000 nM) |
| --- | --- | --- | --- | --- | --- | --- | --- | --- | --- | --- | --- | --- | --- | --- | --- | --- | --- | --- | --- | --- |
| BE3C:IL-1alpha | 0.0015 ± 0.037 | -0.0225 ± 0.019 | -0.001 ± 0.014 | 0.024 ± 0.024 | 0.01 ± 0.051 | 0.0265 ± 0.066 | 0.0285 ± 0.016 | -0.42 ± 0.011 | 0.0235 ± 0.016 | -0.008 ± 0.0085 | 0.015 ± 0.065 | 0.015 ± 0.0042 | 0.0155 ± 0.0092 | -0.523 ± 0.1 | 0.004 ± 0.0042 | -0.0115 ± 0.013 | -0.007 ± 0.016 | 0.0045 ± 0.022 | 0.0005 ± 0.018 | 0.007 ± 0.018 |
| BT:Secreted IgG | 0.038 ± 0.02 | 0.0585 ± 0.018 | 0.0375 ± 0.028 | 0.017 ± 0.038 | -0.0175 ± 0.043 | 0.008 ± 0.033 | 0.007 ± 0.021 | 0.0175 ± 0.0092 | 0.0115 ± 0.073 | 0.026 ± 0.0085 | -0.0005 ± 0.026 | -0.033 ± 0.0042 | -0.0265 ± 0.039 | -0.042 ± 0.034 | 0.0025 ± 0.026 | 0.0185 ± 0.0035 | 0.004 ± 0.03 | 0.0095 ± 0.0021 | 0.001 ± 0.023 | 0.0185 ± 0.00071 |
| BT:B cell Proliferation | 0.021 ± 0.021 | 0.015 ± 0.0071 | 0.021 ± 0.0042 | -0.021 ± 0.038 | 0.008 ± 0.033 | -0.008 ± 0.034 | 0.023 ± 0.016 | 0.035 ± 0.031 | 0.0115 ± 0.0092 | -0.001 | 0.0215 ± 0.0092 | 0.01 ± 0.044 | 0.0345 ± 0.013 | 0.101 ± 0.011 | -0.0145 ± 0.016 | -0.011 ± 0.013 | 0.008 ± 0.021 | -0.005 ± 0.04 | 0.0145 ± 0.00071 | 0.0285 ± 0.0035 |
| BT:sIL-17A | 0.009 ± 0.02 | 0.009 ± 0.045 | -0.176 ± 0.11 | -0.0185 ± 0.022 | 0.0025 ± 0.033 | -0.033 ± 0.067 | 0.003 ± 0.0057 | -0.0485 ± 0.061 | 0.059 ± 0.033 | 0.025 ± 0.19 | -0.0885 ± 0.32 | -0.0095 ± 0.08 | 0.0335 ± 0.071 | -0.084 ± 0.15 | -0.047 ± 0.098 | -0.176 ± 0.021 | -0.112 ± 0.021 | -0.0465 ± 0.067 | -0.075 ± 0.13 | -0.069 ± 0.25 |
| BT:sIL-6 | 0.0525 ± 0.0092 | 0.0485 ± 0.0035 | 0.003 ± 0.014 | 0.002 ± 0.0014 | -0.023 ± 0.042 | -0.0725 ± 0.071 | -0.033 ± 0.034 | -0.0465 ± 0.046 | 0.0315 ± 0.074 | -0.0335 ± 0.023 | -0.0795 ± 0.11 | 0.0135 ± 0.016 | 0.043 ± 0.025 | 0.0195 ± 0.033 | -0.055 ± 0.037 | -0.021 ± 0.047 | -0.037 ± 0.048 | 0.0285 ± 0.0064 | 0.02 ± 0.013 | 0.0245 ± 0.011 |
| BF4T:PAI-I | 0.0005 ± 0.0092 | -0.002 ± 0.0042 | 0.0065 ± 0.021 | -0.0035 ± 0.011 | -0.007 ± 0.0057 | -0.02 ± 0.0014 | -0.0455 ± 0.025 | -0.146 ± 0.034 | -0.0005 ± 0.019 | -0.0095 ± 0.021 | 0.004 ± 0.0085 | -0.001 ± 0.0085 | -0.015 ± 0.0099 | -0.17 ± 0.0078 | 0.004 ± 0.0014 | -0.0005 ± 0.0035 | 0.02 ± 0.0085 | -0.008 ± 0.0014 | -0.005 | 0.006 ± 0.016 |
| BT:sTNF-alpha | -0.035 ± 0.22 | 0.149 ± 0.096 | 0.0905 ± 0.069 | -0.042 ± 0.12 | -0.038 ± 0.02 | -0.123 ± 0.19 | 0.016 ± 0.059 | -0.051 ± 0.024 | 0.0475 ± 0.19 | -0.0695 ± 0.0035 | -0.0215 ± 0.047 | 0.067 ± 0.042 | 0.126 ± 0.016 | 0.102 ± 0.16 | 0.0075 ± 0.044 | -0.0215 ± 0.0092 | -0.041 ± 0.15 | 0.046 ± 0.05 | 0.0265 ± 0.21 | 0.0915 ± 0.12 |
| BF4T:MMP-3 | 0.0245 ± 0.036 | -0.02 ± 0.0014 | 0.026 ± 0.017 | 0.003 ± 0.0028 | 0.0005 ± 0.0035 | -0.008 ± 0.02 | 0.0035 ± 0.046 | 0.002 ± 0.028 | 0.01 ± 0.033 | -0.005 ± 0.047 | 0.0075 ± 0.047 | -0.0125 ± 0.0021 | 0.0225 ± 0.028 | -0.0595 ± 0.0035 | -0.0015 ± 0.0021 | -0.0095 ± 0.025 | 0.026 ± 0.047 | -0.013 ± 0.0028 | -0.0125 ± 0.0092 | 0.001 ± 0.025 |
| BF4T:uPA | -0.008 ± 0.014 | -0.0095 ± 0.022 | -0.0045 ± 0.016 | -0.0065 ± 0.013 | 0.0025 ± 0.022 | -0.028 ± 0.034 | -0.0095 ± 0.036 | -0.051 ± 0.038 | -0.001 ± 0.023 | -0.0145 ± 0.015 | -0.004 ± 0.021 | -0.028 ± 0.03 | -0.025 ± 0.025 | -0.113 ± 0.046 | 0.007 ± 0.0028 | 0 ± 0.011 | 0.0095 ± 0.0092 | -0.025 ± 0.011 | -0.0205 ± 0.013 | -0.0165 ± 0.0092 |
| LPS:IL-1alpha | 0.019 ± 0.11 | 0.0205 ± 0.023 | 0.0485 ± 0.029 | -0.027 ± 0.023 | -0.0115 ± 0.023 | 0.0085 ± 0.022 | -0.022 ± 0.011 | 0.004 ± 0.031 | 0.009 ± 0.011 | -0.0045 ± 0.015 | 0.0015 ± 0.06 | 0.0255 ± 0.018 | -0.0115 ± 0.039 | -0.063 ± 0.12 | 0.0065 ± 0.015 | 0.024 ± 0.016 | 0.0105 ± 0.012 | 0.0065 ± 0.04 | -0.017 ± 0.027 | -0.0125 ± 0.011 |
| BF4T:tPA | -0.016 ± 0.0042 | -0.0235 ± 0.0078 | -0.009 ± 0.05 | -0.012 ± 0.014 | -0.0235 ± 0.018 | -0.0065 ± 0.011 | -0.131 ± 0.019 | -0.133 | -0.0005 ± 0.021 | -0.0115 ± 0.022 | 0.0125 ± 0.005 | -0.0495 ± 0.029 | -0.047 ± 0.057 | -0.181 ± 0.085 | -0.003 ± 0.027 | -0.0155 ± 0.016 | -0.008 ± 0.0099 | -0.062 ± 0.035 | -0.054 ± 0.023 | -0.0335 ± 0.0035 |
| BE3C:HLA-DR | -0.0055 ± 0.0064 | -0.022 ± 0.024 | -0.0035 ± 0.018 | 0.002 ± 0.013 | -0.0075 ± 0.012 | -0.01 ± 0.025 | -0.0645 ± 0.005 | -0.669 ± 0.0085 | 0.0065 ± 0.016 | 0.008 ± 0.0057 | -0.0025 ± 0.023 | -0.006 ± 0.025 | -0.041 ± 0.014 | -0.642 ± 0.14 | -0.0105 ± 0.012 | -0.0125 ± 0.011 | -0.01 ± 0.011 | -0.0025 ± 0.012 | -0.0115 ± 0.0021 | 0.012 ± 0.031 |
| SAg:CCL2/MCP-1 | -0.0095 ± 0.0078 | -0.0025 ± 0.00071 | 0.01 ± 0.011 | 0.0055 ± 0.0035 | -0.009 ± 0.0071 | -0.025 ± 0.017 | -0.0105 ± 0.022 | -0.0125 ± 0.0035 | -0.0145 ± 0.026 | -0.024 ± 0.013 | 0.0115 ± 0.03 | -0.028 ± 0.017 | 0.0005 ± 0.025 | 0.041 ± 0.0028 | 0.0135 ± 0.0035 | -0.018 ± 0.0042 | 0.0035 ± 0.029 | -0.013 ± 0.016 | -0.006 ± 0.0099 | 0.017 ± 0.028 |
| BE3C:CXCL11/I-TAC | 0.005 ± 0.048 | -0.0175 ± 0.005 | 0.0245 ± 0.025 | 0.0015 ± 0.00071 | 0.0115 ± 0.005 | 0.013 ± 0.0014 | -0.04 ± 0.0057 | -0.826 ± 0.0085 | 0.005 ± 0.0028 | -0.002 ± 0.0042 | 0.002 ± 0.0057 | -0.012 ± 0.014 | 0.002 ± 0.011 | -0.598 ± 0.059 | 0.005 ± 0.0014 | -0.0005 ± 0.012 | -0.006 ± 0.011 | -0.026 ± 0.013 | -0.0135 ± 0.016 | 0.008 ± 0.016 |
